Assay results taken from ChEMBL document CHEMBL3826909, “Quinoxaline-based inhibitors of Ebola and Marburg VP40 egress” (Bioorg Med Chem Lett, 2016).
Calls of active or inactive are those of the source. No cut-off for these calls is given here.

Assays:
[1] = molecular target: T1, Matrix protein VP40 (Lake Victoria marburgvirus (strain Ravn-87) (MARV) (Marburg virus (strainKenya/Ravn/1987))) (UniProt Q1PDC8); assay: Inhibition of Marburg virus VP40 PPxY L-domain motif expressed in HEK293T cells assessed as reduction in VLP budding at 1 uM relative to control; assay type: cell-based; settings: HEK-293T
T1 sequence (whole entry): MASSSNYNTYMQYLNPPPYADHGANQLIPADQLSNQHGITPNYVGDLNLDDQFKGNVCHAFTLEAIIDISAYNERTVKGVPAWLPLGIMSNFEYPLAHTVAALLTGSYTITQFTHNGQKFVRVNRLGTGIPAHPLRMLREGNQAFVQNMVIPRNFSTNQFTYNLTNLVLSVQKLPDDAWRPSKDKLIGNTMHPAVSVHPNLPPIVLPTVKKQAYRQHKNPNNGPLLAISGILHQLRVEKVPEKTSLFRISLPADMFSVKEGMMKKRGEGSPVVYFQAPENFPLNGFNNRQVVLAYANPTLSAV

[2] = molecular target: T1, Matrix protein VP40 (Lake Victoria marburgvirus (strain Ravn-87) (MARV) (Marburg virus (strainKenya/Ravn/1987))); assay: Inhibition of Marburg virus VP40 PPxY L-domain motif expressed in HEK293T cells assessed as reduction in VLP budding at 0.1 uM relative to control; assay type: cell-based; settings: HEK-293T
[3] = molecular target: T1, Matrix protein VP40 (Lake Victoria marburgvirus (strain Ravn-87) (MARV) (Marburg virus (strainKenya/Ravn/1987))); assay: Inhibition of Marburg virus VP40 PPxY L-domain motif expressed in HEK293T cells assessed as reduction in VLP budding at 0.3 uM relative to control; assay type: cell-based; settings: HEK-293T
[4] = molecular target: T1, Matrix protein VP40 (Lake Victoria marburgvirus (strain Ravn-87) (MARV) (Marburg virus (strainKenya/Ravn/1987))); assay: Inhibition of Marburg virus VP40 PPxY L-domain motif expressed in HEK293T cells assessed as reduction in VLP budding at 0.03 uM relative to control; assay type: cell-based; settings: HEK-293T
[5] = system: Liver microsome; assay: Half life in human liver microsomes; assay type: ADME
[6] = molecular target: T1, Matrix protein VP40 (Lake Victoria marburgvirus (strain Ravn-87) (MARV) (Marburg virus (strainKenya/Ravn/1987))); assay: Inhibition of Marburg virus VP40 PPxY L-domain motif expressed in HEK293T cells assessed as reduction in VLP budding at 1 uM after 24 hrs by Western blot analysis relative to control; assay type: cell-based; settings: HEK-293T
[7] = system: Liver microsome; assay: Intrinsic clearance in human liver microsomes assessed per mg of protein; assay type: ADME
[8] = Half life in mouse liver microsomes; assay type: ADME
[9] = molecular target: Cytochrome P450 3A4 (Homo sapiens, UniProt P08684); assay: Inhibition of CYP3A4 (unknown origin) using midazolam as substrate; assay type: ADME
Cytochrome P450 3A4, sequence (P08684 whole entry): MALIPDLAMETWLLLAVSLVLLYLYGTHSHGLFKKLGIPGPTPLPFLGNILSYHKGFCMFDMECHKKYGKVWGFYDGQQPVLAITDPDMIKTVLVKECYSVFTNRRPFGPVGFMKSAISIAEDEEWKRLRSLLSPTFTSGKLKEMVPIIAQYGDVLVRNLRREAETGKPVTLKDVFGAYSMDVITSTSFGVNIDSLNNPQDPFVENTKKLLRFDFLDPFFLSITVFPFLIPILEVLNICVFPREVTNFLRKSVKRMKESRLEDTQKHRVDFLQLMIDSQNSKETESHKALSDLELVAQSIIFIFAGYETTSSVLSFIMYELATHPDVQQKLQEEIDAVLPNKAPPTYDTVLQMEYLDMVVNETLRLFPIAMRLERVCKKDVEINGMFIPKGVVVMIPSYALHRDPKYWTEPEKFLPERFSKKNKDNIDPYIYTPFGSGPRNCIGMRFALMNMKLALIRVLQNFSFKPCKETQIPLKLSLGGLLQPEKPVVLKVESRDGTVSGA

[10] = molecular target: T1, Matrix protein VP40 (Lake Victoria marburgvirus (strain Ravn-87) (MARV) (Marburg virus (strainKenya/Ravn/1987))); assay: Inhibition of Marburg virus VP40 PPxY L-domain motif expressed in HEK293T cells assessed as reduction in VLP budding at 10 uM relative to control; assay type: cell-based; settings: HEK-293T
[11] = Cytotoxicity against human HEK293T cells assessed as cell viability at 0.1 uM after 24 hrs by MTT assay relative to control; assay type: cell-based, HEK-293T; settings: read-out: Activity
[12] = Cytotoxicity against African green monkey Vero E6 cells assessed as cell viability at 0.01 uM after 24 hrs by MTT assay relative to control; assay type: cell-based; settings: chlorocebus sabaeus, read-out: Activity
[13] = Cytotoxicity against African green monkey Vero E6 cells assessed as cell viability at 1 uM after 24 hrs by MTT assay relative to control; assay type: cell-based; settings: chlorocebus sabaeus, read-out: Activity
[14] = Cytotoxicity against human HEK293T cells assessed as cell viability at 1 uM after 24 hrs by MTT assay relative to control; assay type: cell-based, HEK-293T; settings: read-out: Activity
[15] = Cytotoxicity against human HEK293T cells assessed as cell viability at 0.01 uM after 24 hrs by MTT assay relative to control; assay type: cell-based, HEK-293T; settings: read-out: Activity
[16] = molecular target: T1, Matrix protein VP40 (Lake Victoria marburgvirus (strain Ravn-87) (MARV) (Marburg virus (strainKenya/Ravn/1987))); assay: Inhibition of Marburg virus VP40 PPxY L-domain motif-Nedd4 interaction in HEK293T cells coexpressing NYFP-Nedd4 and CYFP-mVP40 at 0.1 uM by inverted confocal microscopy based bimolecular complementation assay; assay type: cell-based; settings: HEK-293T
[17] = Effect on cellular protein levels in human HEK293T cells infected with recombinant Vesicular stomatitis virus-M40 expressing Ebola virus VP40 PPxY L-domain motif at 30 to 100 nM after 8 hrs by Western blot analysis relative to control; assay type: ADME, cell-based; settings: hek-293t, 0.1 µM
[18] = Cytotoxicity against African green monkey Vero E6 cells assessed as cell viability at 0.1 uM after 24 hrs by MTT assay relative to control; assay type: cell-based; settings: chlorocebus sabaeus, read-out: Activity
[19] = system: Vesicular stomatitis virus; assay: Effect on viral protein levels in recombinant Vesicular stomatitis virus-M40 expressing Ebola virus VP40 PPxY L-domain motif infected in HEK293T cells at 30 to 100 nM after 8 hrs by Western blot analysis relative to control; assay type: ADME, organism-based; settings: hek-293t, 0.1 µM
[20] = Cytotoxicity against African green monkey Vero E6 cells assessed as cell viability at 10 uM after 24 hrs by MTT assay relative to control; assay type: cell-based; settings: chlorocebus sabaeus, read-out: Activity
[21] = Cytotoxicity against human HEK293T cells assessed as cell viability at 10 uM after 24 hrs by MTT assay relative to control; assay type: cell-based, HEK-293T; settings: read-out: Activity
[22] = molecular target: T1, Matrix protein VP40 (Lake Victoria marburgvirus (strain Ravn-87) (MARV) (Marburg virus (strainKenya/Ravn/1987))); assay: Inhibition of Marburg virus VP40 PPxY L-domain motif expressed in HEK293T cells assessed as reduction in VLP budding at 25 uM relative to control; assay type: cell-based; settings: HEK-293T
[23] = molecular target: T1, Matrix protein VP40 (Lake Victoria marburgvirus (strain Ravn-87) (MARV) (Marburg virus (strainKenya/Ravn/1987))); assay: Inhibition of Marburg virus VP40 PPxY L-domain motif expressed in HEK293T cells assessed as reduction in VLP budding at 100 nM after 24 hrs by Western blot analysis; assay type: cell-based; settings: HEK-293T
[24] = molecular target: T1, Matrix protein VP40 (Lake Victoria marburgvirus (strain Ravn-87) (MARV) (Marburg virus (strainKenya/Ravn/1987))); assay: Inhibition of Marburg virus VP40 PPxY L-domain motif expressed in HEK293T cells assessed as reduction in VLP budding at 30 nM after 24 hrs by Western blot analysis relative to control; assay type: cell-based; settings: HEK-293T

Structure (SMILES)	inhibition [1]	inhibition [2]	inhibition [4]	also measured
Cc1nc2ccccc2nc1SCC(=O)NC(=O)Nc1cc[nH]n1	inactive	–	–	–
Cc1nc2ccccc2nc1SCC(=O)NC(=O)Nc1c(C)nn(C)c1C	64%	–	–	–
Cc1nc2ccccc2nc1SCC(=O)N(C)C(=O)Nc1ccccc1F	inactive	–	–	–
Cc1ccc(F)cc1NC(=O)NC(=O)CSc1nc2ccccc2nc1C	–	89%	–	–
Cc1cccc(NC(=O)NC(=O)CSc2nc3ccccc3nc2C)c1C	–	–	41%	inhibition [3]: 98%
Cc1cc(C)cc(NC(=O)NC(=O)CSc2nc3ccccc3nc2C)c1	–	–	44%	inhibition [3]: 100%
Cc1nc2ccccc2nc1SCC(=O)NC(=O)Nc1ccccc1	88%	–	–	t1/2 [5]: 43.9 min; fold change (FC) [6]: 100; Intrinsic clearance [7]: 1.66 mL/min
COc1ccc(NC(=O)NC(=O)CSc2nc3ccccc3nc2C)cc1	100%	99%	25%	–
Cc1ccc(NC(=O)NC(=O)CSc2nc3ccccc3nc2C)c(C)c1	–	–	62%	inhibition [3]: 100%
Cc1nc2ccccc2nc1SCC(=O)NC(=O)Nc1cccc(C#N)c1	72%	–	–	–
Cc1ccc(C)c(NC(=O)NC(=O)CSc2nc3ccccc3nc2C)c1	–	–	68%	inhibition [3]: 100%; t1/2 [5]: 77.2 min; t1/2 [8]: 1.9 min; IC50 [9]: > 33 µM; Intrinsic clearance [7]: 0.71 mL/min
Cc1nc2ccccc2nc1SCC(=O)NC(=O)N1CCc2ccccc21	inactive	–	–	–
Cc1nc2ccccc2nc1SCC(=O)NC(=O)Nc1c(C)nn(-c2ccccc2)c1C	inactive	–	–	–
Cc1nc2ccccc2nc1SCC(=O)NC(=O)Nc1ccc(Cl)cc1	–	82%	–	–
Cc1nc2ccccc2nc1SCC(=O)NC(=O)NC1CC1	inactive	inactive	–	inhibition [10]: 60%
O=C(CSc1nc2ccccc2nc1Cc1ccccc1)NC(=O)Nc1ccc(F)cc1	inactive	–	–	–
CCc1ccc(C)nc1NC(=O)NC(=O)CSc1nc2ccccc2nc1C	–	–	48%	–
COc1cccc(NC(=O)NC(=O)CSc2nc3ccccc3nc2C)c1	100%	60%	inactive	inhibition [3]: 98%
Cc1nc2ccccc2nc1SCC(=O)NC(=O)Nc1cccc(F)c1C	–	100%	86%	viability at 24 h, 0.1 µM [11]: 70.4%; viability at 24 h, 0.01 µM [12]: 102%; viability at 24 h, 1 µM [13]: 78.7%; viability at 24 h, 1 µM [14]: 60.1%; t1/2 [5]: > 90 min; viability at 24 h, 0.01 µM [15]: 95.1%; inhibition [16]: Active; t1/2 [8]: 3.5 min; Activity [17]: Non-toxic; IC50 [9]: > 33 µM; Intrinsic clearance [7]: 0.54 mL/min; viability at 24 h, 0.1 µM [18]: 92.6%; Activity [19]: Non-toxic; viability at 24 h, 10 µM [20]: 84%; viability at 24 h, 10 µM [21]: 63.5%
Cc1ccc(NC(=O)NC(=O)CSc2nc3ccccc3nc2C)cc1C	–	–	29%	inhibition [3]: 97%
CCNC(=O)NC(=O)CSc1nc2ccccc2nc1C	inactive	inactive	–	inhibition [22]: 60%
Cc1nc2ccccc2nc1SCC(=O)NC(=O)N(C)c1ccccc1	inactive	–	–	–
Cc1ccncc1NC(=O)NC(=O)CSc1nc2ccccc2nc1C	–	85%	–	–
Cc1nc2ccccc2nc1SCC(=O)NC(=O)Nc1cc(Cl)ccc1Cl	–	–	37%	–
Cc1cccnc1NC(=O)NC(=O)CSc1nc2ccccc2nc1C	–	45%	–	–

Structure (SMILES)	inhibition [1]	inhibition [2]	inhibition [4]	also measured
Cc1cccc(NC(=O)NC(=O)CSc2nc3ccccc3nc2C)c1	100%	inactive	inactive	inhibition [3]: 71%
Cc1ccc(NC(=O)NC(=O)CSc2nc3ccccc3nc2C)nc1	–	96%	–	–
Cc1nc2ccccc2nc1SCC(=O)NC(=O)NCc1cccs1	97%	inactive	–	–
Cc1ccccc1NC(=O)NC(=O)CSc1nc2ccccc2nc1C	100%	98%	83%	viability at 24 h, 0.1 µM [11]: 71.7%; viability at 24 h, 0.01 µM [12]: 96.8%; viability at 24 h, 1 µM [13]: 71.2%; viability at 24 h, 1 µM [14]: 62.8%; t1/2 [5]: 46.6 min; viability at 24 h, 0.01 µM [15]: 98.6%; inhibition [16]: Active; inhibition [23]: > 90%; IC50 [9]: > 33 µM; viability at 24 h, 0.1 µM [18]: 92.3%; viability at 24 h, 10 µM [20]: 61.7%; viability at 24 h, 10 µM [21]: 60.5%; fold change (FC) [24]: 3
Cc1nc2ccccc2nc1SCC(=O)NC(=O)Nc1c(C)n[nH]c1C	50%	–	–	–
Cc1ccc(NC(=O)NC(=O)CSc2nc3ccccc3nc2C)cn1	–	87%	–	–
O=C(CSc1nc2ccccc2nc1C(F)(F)F)NC(=O)Nc1ccccc1Cl	inactive	inactive	–	inhibition [3]: inactive; t1/2 [5]: 71.7 min; t1/2 [8]: 49.9 min; IC50 [9]: > 33 µM; Intrinsic clearance [7]: 0.77 mL/min
Cc1nc2ccccc2nc1S(=O)(=O)CC(=O)NC(=O)Nc1ccc(F)cc1	inactive	–	–	–
Cc1c(F)cccc1NC(=O)NC(=O)CSc1nc2ccccc2nc1C(F)(F)F	–	inactive	–	–
Cc1ccc(NC(=O)NC(=O)COc2nc3ccccc3nc2C)cc1	–	70%	–	–
Cc1nc2ccccc2nc1SCC(=O)NC(=O)NCc1ccccc1	60%	29%	–	–
CCc1nc2ccccc2nc1SCC(=O)NC(=O)Nc1ccccc1Cl	–	inactive	–	–
O=C(CSc1cnc2ccccc2n1)NC(=O)Nc1ccccc1F	inactive	–	–	–
Cc1nc2ccccc2nc1SCC(=O)NC(=O)Nc1cccnc1	78%	44%	–	–
Cc1nc2ccccc2nc1SCC(=O)NC(=O)Nc1cccc(Cl)c1	–	–	–	inhibition [3]: 49%
Cc1nc2ccccc2nc1SCC(=O)NC(=O)Nc1ccccc1C#N	87%	–	–	–
COc1ccccc1NC(=O)NC(=O)CSc1nc2ccccc2nc1C	96%	60%	inactive	inhibition [3]: 89%
Cc1ccccc1NC(=O)NC(=O)COc1nc2ccccc2nc1C	100%	58%	–	inhibition [3]: 100%
Cc1ncccc1NC(=O)NC(=O)CSc1nc2ccccc2nc1C	–	41%	–	–
CCc1nc2ccccc2nc1SCC(=O)NC(=O)Nc1cccc(F)c1C	67%	inactive	–	inhibition [3]: inactive; t1/2 [5]: 31.3 min; t1/2 [8]: 54.8 min
Cc1nc2ccccc2nc1SCC(=O)NC(=O)Nc1ccccc1F	100%	98%	inactive	inhibition [3]: 100%
Cc1nc2ccccc2nc1SCC(=O)NC(=O)Nc1cccc(F)c1	41%	–	–	–
Cc1nc2ccccc2nc1SCC(=O)NC(=O)Nc1ccccn1	80%	inactive	–	–
Cc1cccc(C)c1NC(=O)NC(=O)CSc1nc2ccccc2nc1C	–	–	inactive	inhibition [3]: 100%
Cc1nc2ccccc2nc1SCC(=O)NC(=O)Nc1ccc(F)cc1	80%	–	–	–
